Here are results for 31 molecules from US10836725B2, “Modulators of the integrated stress pathway” (Calico Life Sciences LLC, priority 2016, dated 2020).

The first test relates to ATF4 luciferase reporter. The test is described as follows: ATF4-Luc assay in HEK293T cells carrying the ATF4 luciferase reporter (in vitro model of VWMD). In kind it is cell-based, human. As to conditions: 1 μg/mL tunicamycin, 7 hours, luminescence (One Glo). Here is the method: In order to test exemplary compounds of the invention in a cellular context, a stable VWMD cell line was first constructed. The ATF4 reporter was prepared by fusing the human full-length ATF4 5′-UTR (NCBI Accession No. BC022088.2) in front of the firefly luciferase (FLuc) coding sequence lacking the initiator methionine as described in Sidrauski et al (eLife 2013). The construct was used to produce recombinant retroviruses using standard methods and the resulting viral supernatant was used to transduce HEK293T cells, which were then subsequently selected with puromycin to generate a stable cell line.
HEK293T cells carrying the ATF4 luciferase reporter were plated on polylysine coated 384-well plates (Greiner Bio-one) at 30,000 cells per well. Cells were treated the next day with 1 μg/mL tunicamycin and 200 nM of a compound of Formula (I) for 7 hours. Luminescence was measured using One Glo (Promega) as specified by the manufacturer. Cells were maintained in DMEM with L-glutamine supplemented with 10% heat-inactivated FBS (Gibco) and Antibiotic-Antimycotic solution (Gibco).
Table 2 below summarizes the EC50 data obtained using the ATF4-Luc assay for exemplary compounds of the invention.
As to `O=C(COc1ccc(Cl)c(F)c1)NC12CC(C(=O)NCCc3c[nH]c4ccccc34)(C1)C2` [Compound 194], the EC50 was below 0.25 µM.

The test is the same for the next values; noted with them: Homo sapiens, HEK-293T, 1 μg/mL tunicamycin, 7 hours, luminescence (One Glo).
In the case of `Cc1cnc(CNC(=O)C23CC(NC(=O)COc4ccc(Cl)c(F)c4)(C2)C3)cn1` [Compound 228, 3-[2-(4-chloro-3-fluorophenoxy)acetamido]-N-[(5-methylpyrazin-2-yl)methyl]bicyclo[1.1.1]pentane-1-carboxamide], the EC50 is above 2 µM.

On to `O=C(COc1ccc(Cl)c(F)c1)NC12CC(C(=O)NCc3nnc4n3CCCC4)(C1)C2` [Compound 223, 3-[2-(4-chloro-3-fluorophenoxy)acetamido]-N-[(5,6,7,8-tetrahydro[1,2,4]triazolo[4,3-a]pyridin-3-yl)methyl]bicyclo[1.1.1]pentane-1-carboxamide], for which the EC50 is above 2 µM.

Take `O=C(COc1ccc(Cl)c(F)c1)NC12CCC(C(=O)NCc3cccc(Cl)c3)(CC1)C(O)C2` (stereo not shown) [Compound 131, 4-[2-(4-chloro-3-fluorophenoxy)acetamido]-N-[(3-chlorophenyl)methyl]-2-hydroxybicyclo[2.2.2]octane-1-carboxamide]: the concentration for a half-maximal effect (EC50) is 0.25 to 0.5 µM.

Turning to `O=C(COc1ccc(Cl)c(F)c1)NC12CC(C(=O)NCc3ccc(F)cc3)(C1)C2` [Compound 245, 3-[2-(4-chloro-3-fluorophenoxy)acetamido]-N-[(4-fluorophenyl)methyl]bicyclo[1.1.1]pentane-1-carboxamide], the EC50 was above 2 µM.

As for `O=C(COc1ccc(Cl)c(F)c1)NC12CCC(C(=O)NCc3ccc(C(F)(F)F)cn3)(CC1)[C@@H](O)C2` (single isomer, unassigned) [Compound 114], the EC50 is below 0.25 µM.

As to `O=C(COc1ccc(Cl)c(F)c1)NC12CC(C(=O)NCc3ccc(Cl)c(Cl)c3)(C1)C2` [Compound 241, 3-[2-(4-chloro-3-fluorophenoxy)acetamido]-N-[(3,4-dichlorophenyl]methyl]bicyclo[1.1.1]pentane-1-carboxamide], the EC50 was above 2 µM.

As to `O=C(COc1ccc(Cl)c(F)c1)NC12CCC(C(=O)NCc3cncc(F)c3)(CC1)C(O)C2` (stereo not shown) [Compound 112, 4-[2-(4-chloro-3-fluorophenoxy)acetamido]-N-[(5-fluoropyridin-3-yl)methyl]-2-hydroxybicyclo[2.2.2]octane-1-carboxamide], the EC50 is above 2 µM.

Consider `O=C(COc1ccc(Cl)c(F)c1)NC12CCC(C(=O)NCc3cc(F)cc(C(F)(F)F)c3)(CC1)C(O)C2` (stereo not shown) [Compound 126, 4-[2-(4-chloro-3-fluorophenoxy)acetamido]-N-{[3-fluoro-5-(trifluoromethyl)phenyl]methyl}-2-hydroxybicyclo[2.2.2]octane-1-carboxamide], for which the half-maximal effective concentration (EC50) is above 2 µM.

For `Cc1cnc(CNC(=O)C23CC(NC(=O)COc4ccc(Cl)c(F)c4)(C2)C3)o1` [Compound 177, 3-[2-(4-chloro-3-fluorophenoxy)acetamido]-N-[(5-methyl-1,3-oxazol-2-yl)methyl]bicyclo[1.1.1]pentane-1-carboxamide], the EC50 is above 2 µM.

Regarding `O=C(COc1ccc(Cl)c(F)c1)NC12CC(C(=O)NCc3ccc(F)c(F)c3)(C1)C2` [Compound 185, 3-[2-(4-chloro-3-fluorophenoxy)acetamido]-N-[(3,4-difluorophenyl)methyl]bicyclo[1.1.1]pentane-1-carboxamide], the EC50 was above 2 µM.

Turning to `N#Cc1ccc(CNC(=O)C23CCC(NC(=O)COc4ccc(Cl)c(F)c4)(CC2)CC3O)nc1` (stereo not shown) [Compound 141, 4-[2-(4-chloro-3-fluorophenoxy)acetamido]-N-[(5-cyanopyridin-2-yl)methyl]-2-hydroxybicyclo[2.2.2]octane-1-carboxamide], the EC50 was below 0.25 µM.

`C[C@H](NC(=O)C12CC(NC(=O)COc3ccc(Cl)c(F)c3)(C1)C2)c1ccc(Cl)cc1` [Compound 183, 3-[2-(4-chloro-3-fluorophenoxy)acetamido]-N-[(1S)-1-(4-chlorophenyl)ethyl]bicyclo[1.1.1]pentane-1-carboxamide]: the EC50 is above 2 µM.

`O=C(COc1ccc(Cl)c(F)c1)NC12CC(C(=O)NCCn3cccn3)(C1)C2` [Compound 252, 3-[2-(4-chloro-3-fluorophenoxy)acetamido]-N-[2-(1H-pyrazol-1-yl)ethyl]bicyclo[1.1.1]pentane-1-carboxamide]: the EC50 was above 2 µM.

As to `COc1ccc(CNC(=O)C23CC(NC(=O)COc4ccc(Cl)c(F)c4)(C2)C3)cc1Cl` [Compound 249, 3-[2-(4-chloro-3-fluorophenoxy)acetamido]-N-[(3-chloro-4-methoxyphenyl)methyl]bicyclo[1.1.1]pentane-1-carboxamide], the EC50 is above 2 µM.

Turning to `Cc1ccc(CNC(=O)C23CCC(NC(=O)COc4ccc(Cl)c(F)c4)(CC2)CC3O)cc1` (stereo not shown) [Compound 125, 4-[2-(4-chloro-3-fluorophenoxy)acetamido]-2-hydroxy-N-[(4-methylphenyl)methyl]bicyclo[2.2.2]octane-1-carboxamide], the EC50 is below 0.25 µM.

For `Cc1cc(OCCNC(=O)C23CC(NC(=O)COc4ccc(Cl)cc4)(C2)C3)ccc1Cl` [Compound 103, N-[2-(4-chloro-3-methylphenoxy)ethyl]-3-[2-(4-chlorophenoxy)acetamido]-bicyclo[1.1.1]pentane-1-carboxamide], the 50% effective concentration (EC50) lay within 0.25 to 0.5 µM.

On to `COc1c(F)cc(CNC(=O)C23CC(NC(=O)COc4ccc(Cl)c(F)c4)(C2)C3)cc1F` [Compound 206, 3-[2-(4-chloro-3-fluorophenoxy)acetamido]-N-[(3,5-difluoro-4-methoxyphenyl)methyl]bicyclo[1.1.1]pentane-1-carboxamide], for which the EC50 was above 2 µM.

Turning to `Cc1noc(CNC(=O)C23CC(NC(=O)COc4ccc(Cl)c(F)c4)(C2)C3)n1` [Compound 159, 3-[2-(4-chloro-3-fluorophenoxy)acetamido]-N-[(3-methyl-1,2,4-oxadiazol-5-yl)methyl]bicyclo[1.1.1]pentane-1-carboxamide], the EC50 is above 2 µM.

Regarding `O=C(COc1ccc(Cl)c(F)c1)NC12CC(C(=O)NCc3cnoc3)(C1)C2` [Compound 170, 3-[2-(4-chloro-3-fluorophenoxy)acetamido]-N-[(1,2-oxazol-4-yl)methyl]bicyclo[1.1.1]pentane-1-carboxamide], the EC50 was above 2 µM.

Consider `O=C(COc1ccc(Cl)c(F)c1)NC12CC(C(=O)NCc3cn4ccccc4n3)(C1)C2` [Compound 191, 3-[2-(4-chloro-3-fluorophenoxy)acetamido]-N-[(imidazo[1,2-a]pyridin-2-yl)methyl]bicyclo[1.1.1]pentane-1-carboxamide], for which the EC50 lay within 1 to 2 µM.

Take `O=C(COc1ccc(Cl)c(F)c1)NC12CC(C(=O)NCc3ccc(C(F)(F)F)nc3)(C1)C2` [Compound 149, 3-[2-(4-chloro-3-fluorophenoxy)acetamido]-N-{[6-(trifluoromethyl)pyridin-3-yl]methyl}bicyclo[1.1.1]pentane-1-carboxamide]: the EC50 is 0.25 to 0.5 µM.

`O=C(COc1ccc(Cl)c(F)c1)NC12CC(C(=O)NCCCc3ccc(F)cc3)(C1)C2` [Compound 204, 3-[2-(4-chloro-3-fluorophenoxy)acetamido]-N-[3-(4-fluorophenyl)propyl]bicyclo[1.1.1]pentane-1-carboxamide]: the EC50 was below 0.25 µM.

Take `Cn1cnc(CNC(=O)C23CC(NC(=O)COc4ccc(Cl)c(F)c4)(C2)C3)c1` [Compound 196, 3-[2-(4-chloro-3-fluorophenoxy)acetamido]-N-[(1-methyl-1H-imidazol-4-yl)methyl]bicyclo[1.1.1]pentane-1-carboxamide]: the EC50 was above 2 µM.

As for `CCc1csc(CCNC(=O)C23CC(NC(=O)COc4ccc(Cl)c(F)c4)(C2)C3)n1` [Compound 230, 3-[2-(4-chloro-3-fluorophenoxy)acetamido]-N-[2-(4-ethyl-1,3-thiazol-2-yl)ethyl]bicyclo[1.1.1]pentane-1-carboxamide], the EC50 was above 2 µM.

Consider `Cn1nccc1CNC(=O)C12CC(NC(=O)COc3ccc(Cl)c(F)c3)(C1)C2` [Compound 184, 3-[2-(4-chloro-3-fluorophenoxy)acetamido]-N-[(1-methyl-1H-pyrazol-5-yl)methyl]bicyclo[1.1.1]pentane-1-carboxamide], for which the EC50 was above 2 µM.

For `O=C(COc1ccc(Cl)cc1)NC12CC(C(=O)NCCOc3cccc(F)c3)(C1)C2` [Compound 104, 3-[2-(4-chlorophenoxy)acetamido]-N-[2-(3-fluorophenoxy)ethyl]bicyclo-[1.1.1]pentane-1-carboxamide], the EC50 is 0.25 to 0.5 µM.

With `COc1ncc(CNC(=O)C23CC(NC(=O)COc4ccc(Cl)c(F)c4)(C2)C3)cn1` [Compound 200, 3-[2-(4-chloro-3-fluorophenoxy)acetamido]-N-[(2-methoxypyrimidin-5-yl)methyl]bicyclo[1.1.1]pentane-1-carboxamide], the EC50 was above 2 µM.

On to `CCOc1ccc(CNC(=O)C23CC(NC(=O)COc4ccc(Cl)c(F)c4)(C2)C3)cc1` [Compound 240, 3-[2-(4-chloro-3-fluorophenoxy)acetamido]-N-[(4-ethoxyphenyl)methyl]bicyclo[1.1.1]pentane-1-carboxamide], for which the EC50 is above 2 µM.

As for `O=C(COc1ccc(Cl)c(F)c1)NC12CCC(C(=O)NCc3cnccn3)(CC1)C(O)C2` (stereo not shown) [Compound 144], the EC50 is above 2 µM.

`O=C(COc1ccc(Cl)c(F)c1)NC12CC(C(=O)NCc3cccc(OC(F)F)c3)(C1)C2` [Compound 250, 3-[2-(4-chloro-3-fluorophenoxy)acetamido]-N-{[3-(difluoromethoxy)phenyl]methyl}bicyclo[1.1.1]pentane-1-carboxamide]: the EC50 is above 2 µM.
